Experimental data taken from patent US8575197B2, “Pyrolinone derivative and pharmaceutical composition comprising the same” (Shionogi & Co., Ltd., priority 2008, dated 2013).

Biological target: human P2X3 receptor (Homo sapiens (Human), UniProt P56373)
Assay: P2X3 receptor inhibition, ATP-evoked Fluo-3 calcium fluorescence (FDSS 3000)
Type: cell-based
Details: C6BU-1 cell transfected with human P2X3 receptor gene; ATP-evoked Fluo-3 fluorescence
Summary of the method: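 C6BU-1 cells stably transfected with human P2X3, loaded with 4 μM Fluo-3-AM for 1 h at 37 °C in HEPES buffer pH 7.5 with probenecid. Compound added 5 min before 40 nM ATP solution; fluorescence followed 3 min. IC50 from ratio of peak post-ATP to baseline fluorescence.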

Sequence of human P2X3 receptor (P56373 whole entry): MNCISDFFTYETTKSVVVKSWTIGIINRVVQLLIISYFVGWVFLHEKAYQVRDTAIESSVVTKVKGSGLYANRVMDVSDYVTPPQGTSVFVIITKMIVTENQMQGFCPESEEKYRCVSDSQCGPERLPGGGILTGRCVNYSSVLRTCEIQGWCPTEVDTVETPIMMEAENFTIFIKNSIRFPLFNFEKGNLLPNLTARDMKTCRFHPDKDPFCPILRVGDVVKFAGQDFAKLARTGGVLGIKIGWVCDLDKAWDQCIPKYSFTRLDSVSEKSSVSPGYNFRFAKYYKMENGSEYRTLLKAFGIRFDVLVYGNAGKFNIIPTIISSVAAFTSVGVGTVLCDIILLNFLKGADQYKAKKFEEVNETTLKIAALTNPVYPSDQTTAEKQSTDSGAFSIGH

| SMILES | IC50 [nM] |
| --- | --- |
| CNC(=O)COc1ccccc1C1c2c(C(C)(C)C)n[nH]c2C(=O)N1c1ccc(-c2ccon2)cc1 (stereo not drawn) [II-077] | 237 |
| CC(C)c1n[nH]c2c1C(c1ccccc1N)N(c1ccc(-c3ccsc3)cc1)C2=O (stereo not drawn) [II-081] | 189 |
| CC(=O)N(C)c1ccccc1C1c2c(C(C)C)n[nH]c2C(=O)N1c1ccc(-c2ccsc2)cc1 (stereo not drawn) [II-082] | 44 |
| COc1ccccc1C1c2c(C3CC3)n[nH]c2C(=O)N1c1ccc(-c2ccsc2)cc1 (stereo not drawn) [II-083] | 24 |
| CC(C)c1n[nH]c2c1C(c1ccccc1CN(C)C)N(c1ccc(-c3ccsc3)cc1)C2=O (stereo not drawn) [II-084] | 18 |
| CC(=O)Nc1ccccc1C1c2c(C(C)C)n[nH]c2C(=O)N1c1ccc(-c2ccsc2)cc1 (stereo not drawn) [II-085] | 23 |
| CC(C)c1n[nH]c2c1C(c1ccccc1CO)N(c1ccc(-c3ccsc3)cc1)C2=O (stereo not drawn) [II-086] | 32 |
| CC(C)c1n[nH]c2c1C(c1ccccc1C(=O)O)N(c1ccc(-c3ccsc3)cc1)C2=O (stereo not drawn) [II-089] | 107 |
| CC(C)c1n[nH]c2c1C(c1ccccc1CC(=O)O)N(c1ccc(-c3ccsc3)cc1)C2=O (stereo not drawn) [II-094] | 65 |
| COc1ccccc1C1c2c(C(C)(C)C)n[nH]c2C(=O)N1c1ccc(OC(F)(F)F)cc1 (stereo not drawn) [II-097] | 358 |
| COc1ccc(N2C(=O)c3[nH]nc(C(C)(C)C)c3C2c2ccccc2OC)cc1 (stereo not drawn) [II-098] | 761 |
| CSc1ccccc1C1c2c(C(C)(C)C)n[nH]c2C(=O)N1c1ccc(-c2ccon2)cc1 (stereo not drawn) [II-099] | 46 |
| CC(C)(C)c1n[nH]c2c1C(c1ccccc1OCCO)N(c1ccc(-c3ccon3)cc1)C2=O (stereo not drawn) [II-100] | 31 |
| CCOc1ccccc1C1c2c(C(C)(C)C)n[nH]c2C(=O)N1c1ccc(-c2ccon2)cc1 (stereo not drawn) [II-101] | 27 |
| CCc1ccccc1C1c2c(C(C)(C)C)n[nH]c2C(=O)N1c1ccc(-c2ccon2)cc1 (stereo not drawn) [II-106] | 226 |
| CC(C)(C)c1n[nH]c2c1C(c1ccccc1O)N(c1ccc(-c3ccon3)cc1)C2=O (stereo not drawn) [II-107] | 114 |
| COc1ncccc1C1c2c(C(C)(C)CO)n[nH]c2C(=O)N1c1ccc(-c2ccsc2)cc1 (stereo not drawn) [II-109] | 21 |
| COc1ncccc1C1c2c(C(C)(C)CO)n[nH]c2C(=O)N1c1ccc(-c2cccs2)cc1 (stereo not drawn) [II-110] | 24 |
| COc1ncccc1C1c2c(C(C)(C)CO)n[nH]c2C(=O)N1c1ccc(-c2ccco2)cc1 (stereo not drawn) [II-111] | 91 |
| CC(C)(C)c1n[nH]c2c1C(c1ccccc1S(C)(=O)=O)N(c1ccc(-c3ccon3)cc1)C2=O (stereo not drawn) [II-112] | 389 |
| CC(C)(C)c1n[nH]c2c1C(c1ccccc1CO)N(c1ccc(-c3ccon3)cc1)C2=O (stereo not drawn) [II-113] | 838 |
| COc1ccc(-c2n[nH]c3c2C(c2ccccc2OCCO)N(c2nc4cc(OC)ccc4s2)C3=O)cc1 (stereo not drawn) [II-117] | 348 |
| COc1ccc(-c2n[nH]c3c2C(c2ccccc2OCCO)N(c2nc4ccc(OC)cc4s2)C3=O)cc1 (stereo not drawn) [II-118] | 429 |
| CN(C)c1ccccc1C1c2c(C(C)(C)C)n[nH]c2C(=O)N1c1ccc(-c2ccon2)cc1 (stereo not drawn) [II-119] | 137 |
| Cc1ncccc1C1c2c(C(C)(C)C)n[nH]c2C(=O)N1c1ccc(-c2cccs2)cc1 (stereo not drawn) [II-121] | 464 |

| SMILES | IC50 [nM] |
| --- | --- |
| Cc1ncccc1C1c2c(C(C)(C)C)n[nH]c2C(=O)N1c1ccc(-c2ccsc2)cc1 (stereo not drawn) [II-123] | 431 |
| COCc1ncccc1C1c2c(C(C)(C)C)n[nH]c2C(=O)N1c1ccc(-c2ccsc2)cc1 (stereo not drawn) [II-126] | 221 |
| COC(=O)COCc1ncccc1C1c2c(C(C)(C)C)n[nH]c2C(=O)N1c1ccc(-c2ccsc2)cc1 (stereo not drawn) [II-128] | 216 |
| CC(C)(C)c1n[nH]c2c1C(c1ccccc1C(=O)O)N(c1ccc(-c3ccsc3)cc1)C2=O (stereo not drawn) [II-131] | 88 |
| COCCOc1ccccc1C1c2c(C(C)(C)CO)n[nH]c2C(=O)N1c1ccc(-c2ccon2)cc1 (stereo not drawn) [II-132] | 141 |
| COCc1ncccc1C1c2c(C(C)C)n[nH]c2C(=O)N1c1ccc(-c2ccsc2)cc1 (stereo not drawn) [II-133] | 116 |
| COc1ccccc1C1c2c(C(C)(C)CO)n[nH]c2C(=O)N1c1ccc(-c2cc(C)no2)cc1 (stereo not drawn) [II-136] | 55 |
| COc1ccccc1C1c2c(C(C)(C)CO)n[nH]c2C(=O)N1c1ccc(-c2noc(C)n2)cc1 (stereo not drawn) [II-137] | 148 |
| COc1ccccc1C1c2c(C(C)(C)CO)n[nH]c2C(=O)N1c1ccc(-c2nc(C)no2)cc1 (stereo not drawn) [II-138] | 44 |
| COc1ccccc1C1c2c(C(C)(C)CO)n[nH]c2C(=O)N1c1nc2ccccc2s1 (stereo not drawn) [II-139] | 332 |
| COc1ccccc1C1c2c(C(C)(C)CO)n[nH]c2C(=O)N1c1ccc(-c2nccs2)cc1 (stereo not drawn) [II-141] | 22 |
| COc1ccc2nc(N3C(=O)c4[nH]nc(C(C)(C)CO)c4C3c3ccccc3OC)sc2c1 (stereo not drawn) [II-142] | 104 |
| CCC(CC)(CO)c1n[nH]c2c1C(c1ccccc1OC)N(c1ccc(-c3ccon3)cc1)C2=O (stereo not drawn) [II-145] | 33 |
| CNc1cc(-c2ccc(N3C(=O)c4[nH]nc(C(C)(C)C)c4C3c3ccccc3OC)cc2)on1 (stereo not drawn) [II-146] | 416 |
| COc1ccccc1C1c2c(C(C)(C)C)n[nH]c2C(=O)N1c1ccc(-c2cc(NC(C)=O)no2)cc1 (stereo not drawn) [II-147] | 977 |
| COc1ccccc1C1c2c(C(F)(F)F)n[nH]c2C(=O)N1c1ccc(-c2ccon2)cc1 (stereo not drawn) [II-148] | 311 |
| C=C(C)c1n[nH]c2c1C(c1ccccc1OC)N(c1ccc(-c3ccon3)cc1)C2=O (stereo not drawn) [II-149] | 377 |
| COc1ccccc1C1c2c(C(C)(C)C)n[nH]c2C(=O)N1c1ccc(C(C)(C)O)cc1 (stereo not drawn) [II-151] | 650 |
| COc1ccccc1C1c2c(C(C)(C)C)n[nH]c2C(=O)N1c1ccc(C(C)=O)cc1 (stereo not drawn) [II-155] | 322 |
| CO/N=C(/C)c1ccc(N2C(=O)c3[nH]nc(C(C)(C)C)c3C2c2ccccc2OC)cc1 (stereo not drawn) [II-156] | 412 |
| COc1ccccc1C1c2c(C(C)(C)C(=O)O)n[nH]c2C(=O)N1c1ccc(-c2cccs2)cc1 (stereo not drawn) [II-163] | 34 |
| CC(C)(C)c1n[nH]c2c1C(c1cccc[n+]1[O-])N(c1ccc(-c3cccs3)cc1)C2=O (stereo not drawn) [II-164] | 36 |
| COc1ccccc1C1c2c(C(C)(C)C(=O)O)n[nH]c2C(=O)N1c1ccc(-c2ccsc2)cc1 (stereo not drawn) [II-165] | 41 |
| C[S+]([O-])CCOc1ccccc1C1c2c(C(C)(C)C)n[nH]c2C(=O)N1c1ccc(-c2ccon2)cc1 (stereo not drawn) [II-168] | 101 |
| CNC(=O)C(C)(C)c1n[nH]c2c1C(c1ccccc1OC)N(c1ccc(-c3ccsc3)cc1)C2=O (stereo not drawn) [II-170] | 34 |

The next compounds have a lower IC50 than those just listed; values first:

| IC50 [nM] | SMILES |
| --- | --- |
| 16 | CC(C)c1n[nH]c2c1C(c1ccccc1OCCN(C)C)N(c1ccc(-c3ccsc3)cc1)C2=O (stereo not drawn) [II-078] |
| 11 | COc1ccccc1C1c2c(C(C)C)n[nH]c2C(=O)N1c1ccc(-c2ccsc2)cc1 (stereo not drawn) [II-079] |
| 11 | CC(C)c1n[nH]c2c1C(c1ccccc1OCC[S+](C)[O-])N(c1ccc(-c3ccsc3)cc1)C2=O (stereo not drawn) [II-080] |
| 9 | CC(C)c1n[nH]c2c1C(c1ccccc1NC(N)=O)N(c1ccc(-c3ccsc3)cc1)C2=O (stereo not drawn) [II-087] |
| 4 | CC(C)c1n[nH]c2c1C(c1ccccc1NS(C)(=O)=O)N(c1ccc(-c3ccsc3)cc1)C2=O (stereo not drawn) [II-088] |
| 2 | CC(C)c1n[nH]c2c1C(c1ccccc1C(N)=O)N(c1ccc(-c3ccsc3)cc1)C2=O (stereo not drawn) [II-090] |
| 2 | CC(C)c1n[nH]c2c1C(c1ccccc1C(=O)NCCO)N(c1ccc(-c3ccsc3)cc1)C2=O (stereo not drawn) [II-091] |
| 2 | CNC(=O)c1ccccc1C1c2c(C(C)C)n[nH]c2C(=O)N1c1ccc(-c2ccsc2)cc1 (stereo not drawn) [II-092] |
| 2 | CC(C)c1n[nH]c2c1C(c1ccccc1C(=O)N(C)C)N(c1ccc(-c3ccsc3)cc1)C2=O (stereo not drawn) [II-093] |
| 12 | COC(=O)Nc1ccccc1C1c2c(C(C)C)n[nH]c2C(=O)N1c1ccc(-c2ccsc2)cc1 (stereo not drawn) [II-095] |
| 3 | CC(C)(C)c1n[nH]c2c1C(c1ccccc1OCCO)N(c1ccc(-c3ccsc3)cc1)C2=O (stereo not drawn) [II-104] |
| 13 | CC(C)(C)c1n[nH]c2c1C(c1ccccc1OCCO)N(c1ccc(-c3ccco3)cc1)C2=O (stereo not drawn) [II-105] |
| 15 | CC(C)(C)c1n[nH]c2c1C(c1ccccc1OCC#N)N(c1ccc(-c3ccon3)cc1)C2=O (stereo not drawn) [II-108] |
| 12 | COCCOc1ccccc1C1c2c(C(C)(C)C)n[nH]c2C(=O)N1c1ccc(-c2cccs2)cc1 (stereo not drawn) [II-114] |
| 11 | COCCOc1ccccc1C1c2c(C(C)(C)C)n[nH]c2C(=O)N1c1ccc(-c2ccsc2)cc1 (stereo not drawn) [II-115] |
| 8 | CC(C)(C)c1n[nH]c2c1C(c1ccccc1OCCO)N(c1ccc(-c3ccoc3)cc1)C2=O (stereo not drawn) [II-124] |
| 10 | COCCOc1ccccc1C1c2c(C(C)(C)C)n[nH]c2C(=O)N1c1ccc(-c2ccoc2)cc1 (stereo not drawn) [II-125] |
| 4 | CC(C)c1n[nH]c2c1C(c1ccccc1OCC#N)N(c1ccc(-c3ccsc3)cc1)C2=O (stereo not drawn) [II-127] |
| 4 | COCCOc1ccccc1C1c2c(C(C)(C)CO)n[nH]c2C(=O)N1c1ccc(-c2ccsc2)cc1 (stereo not drawn) [II-130] |
| 7 | CN(C)C(=O)COc1ccccc1C1c2c(C(C)(C)C)n[nH]c2C(=O)N1c1ccc(-c2ccsc2)cc1 (stereo not drawn) [II-166] |
| 5 | CNC(=O)COc1ccccc1C1c2c(C(C)(C)C)n[nH]c2C(=O)N1c1ccc(-c2ccsc2)cc1 (stereo not drawn) [II-167] |
| 4 | CC(C)(C)c1n[nH]c2c1C(c1ccccc1OCC(N)=O)N(c1ccc(-c3ccsc3)cc1)C2=O (stereo not drawn) [II-169] |
| 7 | CC(C)(C)c1n[nH]c2c1C(c1ccccc1OCCNS(C)(=O)=O)N(c1ccc(-c3ccsc3)cc1)C2=O (stereo not drawn) [II-171] |
| 11 | COc1ccccc1C1c2c(C(C)(C)C(=O)N(C)C)n[nH]c2C(=O)N1c1ccc(-c2ccsc2)cc1 (stereo not drawn) [II-172] |
| 4 | CC(C)(C)c1n[nH]c2c1C(c1ccccc1OCC#N)N(c1ccc(-c3ccsc3)cc1)C2=O (stereo not drawn) [II-173] |
| 3 | CC(C)(C)c1n[nH]c2c1C(c1ccccc1OCc1nnn[nH]1)N(c1ccc(-c3ccsc3)cc1)C2=O (stereo not drawn) [II-174] |
| 3 | CC(C)c1n[nH]c2c1C(c1ccccc1OCc1nnn[nH]1)N(c1ccc(-c3ccsc3)cc1)C2=O (stereo not drawn) [II-175] |
| 10 | CC(=O)NCCOc1ccccc1C1c2c(C(C)C)n[nH]c2C(=O)N1c1ccc(-c2ccsc2)cc1 (stereo not drawn) [II-176] |
